According to PMC2921948 (Clinical cancer research : an official journal of the …, 2010):
Like-named read-outs stand apart in the source and are kept apart here.

Experiments:
[1] = target: T1, human serum albumin (HSA) (Homo sapiens, UniProt P02768); assay: fluorescence polarization displacement of dansyl sarcosine; format: binding
[2] = target: T1, human serum albumin (HSA); assay: as above; format: binding; remark: listed apart in the source

T1 sequence (P02768 25-609): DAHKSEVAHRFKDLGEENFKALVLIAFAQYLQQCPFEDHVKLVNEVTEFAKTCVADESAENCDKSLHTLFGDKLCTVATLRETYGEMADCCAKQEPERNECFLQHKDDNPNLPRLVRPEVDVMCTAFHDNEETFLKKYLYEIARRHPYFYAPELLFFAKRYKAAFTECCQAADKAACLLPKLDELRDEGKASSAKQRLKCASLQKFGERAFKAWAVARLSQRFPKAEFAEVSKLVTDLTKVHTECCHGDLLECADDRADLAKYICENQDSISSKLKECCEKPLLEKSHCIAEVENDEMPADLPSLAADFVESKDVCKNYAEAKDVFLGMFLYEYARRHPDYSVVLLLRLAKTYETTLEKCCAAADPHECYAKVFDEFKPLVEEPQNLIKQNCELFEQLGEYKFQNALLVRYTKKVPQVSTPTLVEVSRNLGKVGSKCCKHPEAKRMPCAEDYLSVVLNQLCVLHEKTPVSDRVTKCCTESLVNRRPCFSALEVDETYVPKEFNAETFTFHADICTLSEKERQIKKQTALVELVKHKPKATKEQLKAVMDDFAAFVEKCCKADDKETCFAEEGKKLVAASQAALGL

| IC50 [1] [µM] | IC50 [2] [µM] | Compound |
| --- | --- | --- |
| 37 | – | CC1(C)CCC(c2ccc(Cl)cc2)=C(CN2CCN(c3ccc(C(=O)NS(=O)(=O)c4ccc(N[C@H](CCN5CCOCC5)CSc5ccccc5)c(S(=O)(=O)C(F)(F)F)c4)cc3)CC2)C1 [ABT-263] |
| – | 711 | CN(C)CC[C@H](CSc1ccccc1)Nc1ccc(S(=O)(=O)NC(=O)c2ccc(N3CCN(Cc4ccccc4-c4ccc(Cl)cc4)CC3)cc2)cc1[N+](=O)[O-] [ABT-737] |
